Assay [1] concerns the target T1, 11-beta-hydroxysteroid dehydrogenase type 2 (Homo sapiens) (UniProt P80365).
T1 sequence (whole entry): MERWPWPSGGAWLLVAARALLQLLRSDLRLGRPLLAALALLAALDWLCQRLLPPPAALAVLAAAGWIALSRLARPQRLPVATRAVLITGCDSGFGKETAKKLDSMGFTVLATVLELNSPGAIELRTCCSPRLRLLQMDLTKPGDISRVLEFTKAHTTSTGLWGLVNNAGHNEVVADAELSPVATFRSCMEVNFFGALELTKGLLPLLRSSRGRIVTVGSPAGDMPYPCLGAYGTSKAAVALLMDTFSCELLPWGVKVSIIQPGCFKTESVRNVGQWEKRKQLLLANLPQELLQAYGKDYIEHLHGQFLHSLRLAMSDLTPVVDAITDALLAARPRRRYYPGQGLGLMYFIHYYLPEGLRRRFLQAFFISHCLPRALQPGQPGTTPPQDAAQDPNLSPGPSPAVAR
Conditions: HEK293, at 200 nM.
Description: Inhibition of human 11beta-HSD2 expressed in HEK293 cells assessed as residual conversion of [1,2,6,7-[3H]cortisol to cortisone at 200 nM after 10 mins by scintillation counting

The target of assay [2] is T2, 11-beta-hydroxysteroid dehydrogenase 1 (Homo sapiens, UniProt P28845). Conditions: HEK293, at 200 nM.
Target sequence in this assay (P28845 whole entry, looked up): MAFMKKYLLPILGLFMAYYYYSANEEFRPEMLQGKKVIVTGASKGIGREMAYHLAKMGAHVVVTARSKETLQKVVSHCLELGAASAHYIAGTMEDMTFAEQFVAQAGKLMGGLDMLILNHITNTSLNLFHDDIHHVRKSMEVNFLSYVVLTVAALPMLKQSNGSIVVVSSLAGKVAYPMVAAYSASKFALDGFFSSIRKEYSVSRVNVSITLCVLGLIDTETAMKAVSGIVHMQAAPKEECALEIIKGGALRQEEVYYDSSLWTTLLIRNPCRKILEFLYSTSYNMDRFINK
Description: Inhibition of human recombinant 11beta-HSD1 expressed in HEK293 cells assessed as residual conversion of [1,2-[3H]cortisone to cortisol at 200 nM after 10 mins by scintillation counting
For assay [3], the target named is T2, 11-beta-hydroxysteroid dehydrogenase 1. Conditions: HEK293, at 1000 nM.
Target sequence in this assay (P28845 whole entry, looked up): as above
Description: Inhibition of human recombinant 11beta-HSD1 expressed in HEK293 cells assessed as residual conversion of [1,2-[3H]cortisone to cortisol at 1000 nM after 10 mins by scintillation counting
Assay [4] shares this target. Put plainly: Inhibition of human recombinant 11beta-HSD1 expressed in HEK293 cells assessed as conversion of [1,2-[3H]cortisone to cortisol after 10 mins by scintillation counting. The assay is classed as cell-based.
Target sequence in this assay (P28845 whole entry): as the sequence (P28845 whole entry, looked up) above
For assay [5], the target named is T1, 11-beta-hydroxysteroid dehydrogenase type 2 (Homo sapiens). Conditions: HEK293, at 1000 nM.
Description: Inhibition of human 11beta-HSD2 expressed in HEK293 cells assessed as residual conversion of [1,2,6,7-[3H]cortisol to cortisone at 1000 nM after 10 mins by scintillation counting
Assay [6] has as its target T3, 11-beta-hydroxysteroid dehydrogenase type 2 (Homo sapiens, UniProt P80365).
T3 sequence (P80365 whole entry): T1 sequence (whole entry)
Put plainly: Inhibition of human 11beta-HSD2 expressed in HEK293 cells assessed as conversion of [1,2,6,7-[3H]cortisol to cortisone after 10 mins by scintillation counting. The format is cell-based.

The target of assay [7] is T2, 11-beta-hydroxysteroid dehydrogenase 1. Conditions: HEK293, at 1 µM.
Target sequence in this assay (P28845 whole entry, looked up): as above
Description: Inhibition of human recombinant 11beta-HSD1 expressed in HEK293 cells assessed as conversion of [1,2-[3H]cortisone to cortisol at 1 uM after 10 mins by scintillation counting

As to `CC(=O)O[C@H]1CC[C@]2(C)[C@H]3C(=O)C=C4[C@@H]5C[C@@](C)(NC(=O)NO)CC[C@]5(C)CC[C@@]4(C)[C@]3(C)CC[C@H]2C1(C)C`, the residual activity (commonly the signal under treatment as a percentage of the control signal) worked out at 34% in assay [1] and 92% in assay [2].

Take `CC1(C)C(=O)CC[C@]2(C)[C@H]3C(=O)C=C4[C@@H]5C[C@@](C)(C(=O)O)CC[C@]5(C)CC[C@@]4(C)[C@]3(C)CC[C@@H]12`: the residual activity in assay [3] turned out to be 36%.

On to `CC(=O)O[C@H]1CC[C@]2(C)[C@H]3C(=O)C=C4[C@@H]5C[C@@](C)(NC(=O)NS(C)(=O)=O)CC[C@]5(C)CC[C@@]4(C)[C@]3(C)CC[C@H]2C1(C)C`, for which the residual activity turned out to be 20% in assay [1] and 90% in assay [2].

As for `CC(=O)O[C@H]1CC[C@]2(C)[C@H]3C(=O)C=C4[C@@H]5C[C@@](C)(NC(=O)N(CCO)CCO)CC[C@]5(C)CC[C@@]4(C)[C@]3(C)CC[C@H]2C1(C)C`, the residual activity turned out to be 93% in assay [1] and 102% in assay [2].

`CC1(C)[C@@H](OC(=O)CCC(=O)O)CC[C@]2(C)[C@H]3C(=O)C=C4[C@@H]5C[C@@](C)(C(=O)O)CC[C@]5(C)CC[C@@]4(C)[C@]3(C)CC[C@@H]12`: the residual activity in assay [3] is 12%.

As for `CN(O)C(=O)[C@@]1(C)CC[C@]2(C)CC[C@]3(C)C(=CC(=O)[C@@H]4[C@@]5(C)CCC(=O)NC(C)(C)[C@@H]5CC[C@]43C)[C@@H]2C1`, the IC50 (as a rule, the concentration that inhibits the measured activity by half) in assay [4] is greater than 40 µM. The residual activity in assay [2] came to 73%.

For `CC1(C)[C@@H](O)CC[C@]2(C)C3=CC(=O)[C@H]4[C@@H]5C[C@@](C)(C(=O)O)CC[C@]5(C)CC[C@@]4(C)[C@]3(C)CC[C@@H]12`, the values for the residual activity in assay [1] and in assay [2] were 85% and 77%, respectively.

On to `CC(=O)O[C@H]1CC[C@]2(C)[C@H]3C(=O)C=C4[C@@H]5C[C@@](C)(NC(=O)NCCO)CC[C@]5(C)CC[C@@]4(C)[C@]3(C)CC[C@H]2C1(C)C`, for which the residual activity in assay [1] was determined as 38%; in assay [2], 97%.

Turning to `CC1(C)/C(=N/O)CC[C@]2(C)[C@H]3C(=O)C=C4[C@@H]5C[C@@](C)(C(=O)O)CC[C@]5(C)CC[C@@]4(C)[C@]3(C)CC[C@@H]12`, in assay [5], the residual activity was 1%.

Consider `CC1(C)[C@@H](Oc2noc(=O)[nH]2)CC[C@]2(C)[C@H]3C(=O)C=C4[C@@H]5C[C@@](C)(NC(N)=O)CC[C@]5(C)CC[C@@]4(C)[C@]3(C)CC[C@@H]12`, for which the values for the residual activity in assay [1] and in assay [2] were 24% and 81%, respectively. In addition, the results for the IC50 in assay [4] and in assay [6] were greater than 40 µM and greater than 4 µM, respectively.

For `CC(=O)O[C@H]1CC[C@]2(C)[C@H]3C(=O)C=C4[C@@H]5C[C@@](C)(C(=O)O)CC[C@]5(C)CC[C@@]4(C)[C@]3(C)CC[C@H]2C1(C)C`, the residual activity in assay [3] was determined as 12%.

With `CC1(C)C(=O)CC[C@]2(C)[C@H]3C(=O)C=C4[C@@H]5C[C@@](C)(NC(N)=O)CC[C@]5(C)CC[C@@]4(C)[C@]3(C)CC[C@@H]12`, the half-inhibitory concentration (IC50) in assay [4] is greater than 10 µM.

`CC(=O)O[C@H]1CC[C@]2(C)[C@H]3C(=O)C=C4[C@@H]5C[C@@](C)(NC(=O)N(C)O)CC[C@]5(C)CC[C@@]4(C)[C@]3(C)CC[C@H]2C1(C)C`: the residual activity was 110% in assay [1] and 96% in assay [2].

Take `CC1(C)[C@@H](O)CC[C@]2(C)[C@H]3C(=O)C=C4[C@@H]5C[C@@](C)(C(=O)O)CC[C@]5(C)CC[C@@]4(C)[C@]3(C)CC[C@@H]12`: the inhibition (in general, how much of the control response was suppressed) in assay [7] amounted to 83.9%. Also, the residual activity in assay [3] is 16%.

Regarding `CC(=O)N[C@H]1CC[C@]2(C)[C@H]3C(=O)C=C4[C@@H]5C[C@@](C)(C(=O)O)CC[C@]5(C)CC[C@@]4(C)[C@]3(C)CC[C@H]2C1(C)C`, the residual activity turned out to be 36% in assay [3] and 0.2% in assay [5].

As to `CC1(C)NC(=O)CC[C@]2(C)[C@H]3C(=O)C=C4[C@@H]5C[C@@](C)(C(=O)O)CC[C@]5(C)CC[C@@]4(C)[C@]3(C)CC[C@@H]12`, the residual activity in assay [3] amounted to 43%; in assay [5], 21%.
